Assay results taken from patent US20250177329A1, “GPR120 AGONISTS FOR THE TREATMENT OF INFLAMMATORY BOWEL DISEASE” (Dompe' Farmaceutici SPA, priority 2022, published 2025).

Key:
DSS-induced colitis = assay: Mouse model of Dextran Sodium Sulfate-induced colitis; assay type: in vivo, female C57/B16 mice
Excerpt: A mouse model of colitis induced by administration of Dextran Sodium Sulfate (DSS) (Wirtz S. et al. Nature Protocols; Volume: 2, Issue: 3 Pages: 541-546; 2007) was used to study the therapeutic effect of oral administration of DFL23806 on colitis.
In details, 8- to 12-week-old female C57/B16 mice were subjected to 3 oral cycles of 2.5% Dextran Sodium Sulfate (DSS) in drinking water (molecular mass, 40 kDa; MP Biomedicals), each cycle characterized by 7 days of DSS administration followed by 7 days of filter-purified water.
From day 3 of DSS administration, the mice were divided in 4 experimental groups, each receiving the treatment specified below: • Group 1: DSS (n=8)
No treatment, used as negative control. • Group 2: DSS+Vehicle (n=8)
Treated with 20% v/v Dimethyl Sulfoxide (DMSO) and 80% v/v Phosphate Buffered Saline (PBS), 0.1 M, pH 8 (Vehicle), used as a negative control. • Group 3: DSS+DFL 90 mg/kg (n=8)
Treated with DFL23806 dissolved in Vehicle, at the dosage of 90 mg/kg once a day. • Group 4: DSS+5-ASA 60 mg/kg (n=8)
Treated with 5-aminosalicylic acid (5-ASA) in Vehicle, at the dosage of 60 mg/Kg once a day, used as reference positive control.
Vehicle, DFL23806 and 5-ASA were administered daily, in the morning, by oral gavage, using plastic sterile feeding tubes 20 ga×30 mm. All mice were sacrificed on day 39.
A DAI score was established based on a scale that considers different parameters characterizing experimental colitis induction and progression (R S Walmsley et al. Gut 1998; 43:29-32).
Body weight, presence of gross blood in the feces, and stool consistency were recorded every 2 days. In details, the DAI was determined at each time point by scoring changes in weight loss (0=none, 1=1%-5%, 2=5%-10%, 3=10%-20%, 4=>20%); stool consistency (0=normal, 2=loose, 4=diarrhea); and rectal bleeding (0=normal, 2=occult bleeding, 4=gross bleeding).
Mice were sacrificed at day 39, colon were collected and colon lengths measured for each mouse, as additional parameter of intestinal inflammation.
The day of sacrifice (day 39), mice were anesthetized with 2% isoflurane and subjected to endoscopy, to confirm the inflammatory grade. The experimental endoscopy setup, denoted “Coloview system”, consisted of a miniature endoscope (scope 1.9 mm outer diameter), a xenon light source, a triple chip camera, and an air pump (all from Karl Storz, Tuttlingen, Germany) to achieve regulated inflation of the mouse colon. The endoscopic procedure was viewed on a colour monitor and a modified murine endoscopic index score of colitis severity was assigned on the basis of colon translucency (0-3 points), granular features of the mucosa (0-3 points), morphology of the vascular pattern (0-4 points), and the presence of fibrin (0-4 points), as previously described by Dr. D'Alessio (D'Alessio, S. et al. J. Clin. Invest. 124, 3863-3878; 2014) leading to a cumulative score between 0 (no signs of inflammation) and […] (endoscopic signs of very severe inflammation).
Histological analysis has been performed by an expert pathologist, in a blinded fashion, to grade the intestinal inflammation. More in details, colons of colitic mice in the various experimental groups have been evaluated for histological analyses using […] paraffin-embedded sections, stained with hematoxylin (Dako) and eosin (Diapath). A blinded pathologist evaluated the degree of inflammatory cell infiltration and mucosal damage, using the RACHMILEWITZ score (Table 1) (Rachmilewitz, D. et al. Gastroenterology 122, 1428-1441; 2002).

human GPR120 = target: T1, human GPR120 (Homo sapiens, UniProt Q5NUL3); assay: Activation of GPR120 receptor; assay type: cell-based
T1 sequence (Q5NUL3 1-361): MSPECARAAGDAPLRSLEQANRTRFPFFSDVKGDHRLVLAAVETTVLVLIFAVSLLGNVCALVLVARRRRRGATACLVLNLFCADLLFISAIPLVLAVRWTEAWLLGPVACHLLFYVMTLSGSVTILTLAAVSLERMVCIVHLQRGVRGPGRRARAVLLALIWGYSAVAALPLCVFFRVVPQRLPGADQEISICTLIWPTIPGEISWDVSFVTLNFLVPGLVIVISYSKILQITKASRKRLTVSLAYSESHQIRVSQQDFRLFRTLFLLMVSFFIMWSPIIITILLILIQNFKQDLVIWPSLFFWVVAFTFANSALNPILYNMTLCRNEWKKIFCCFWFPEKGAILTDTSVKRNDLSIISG

[1] = DFL23806 90 mg/kg oral once a day, versus DSS and DSS+Vehicle groups, already at day 7
[2] = colon, day 39, DFL 90 mg/kg, 5-ASA 60 mg/kg, compared with DSS+Vehicle
[3] = day 39, DFL23806 90 mg/kg, 5-ASA 60 mg/kg oral once a day, compared to DSS and DSS+Vehicle

SMILES: Cc1cc(F)cc(C)c1NS(=O)(=O)c1cccc(CCCCCCC(=O)O)c1 [DFL23806, 7-(3-(N-(4-fluoro-2,6-dimethylphenyl)sulfamoyl)phenyl)heptanoic acid]
- DAI (Disease Activity Index) score (DSS-induced colitis; [1]): significant effect versus the controls
- percentage of body weight loss (DSS-induced colitis; [1]): significant effect versus the controls
- body weight loss / DAI compared with 5-ASA (DSS-induced colitis; DFL23806 90 mg/kg versus 5-ASA 60 mg/kg, at certain time points): even more effective than 5-ASA
- histological score (Rachmilewitz) for extent of flogosis (DSS-induced colitis; [2]): significantly reduced the histological score
- histological score (Rachmilewitz) for extent of ulceration (DSS-induced colitis; [2]): significantly reduced the histological score
- histological score (Rachmilewitz) for flogosis (DSS-induced colitis; [2]): significantly reduced the histological score
- histological score (Rachmilewitz) for ulceration (DSS-induced colitis; [2]): significantly reduced the histological score
- composite endoscopic score (DSS-induced colitis; [3]): significantly inhibit chronic experimental colitis
- endoscopic score: colon thickness (DSS-induced colitis; [3]): significantly inhibit chronic experimental colitis
- endoscopic score: mucosal surface granularity (DSS-induced colitis; [3]): significantly inhibit chronic experimental colitis
- endoscopic score: vascular pattern (DSS-induced colitis; [3]): significantly inhibit chronic experimental colitis
- endoscopic score: visible fibrin (DSS-induced colitis; [3]): significantly inhibit chronic experimental colitis
- colon length (DSS-induced colitis; day 39, DFL23806 90 mg/kg, 5-ASA 60 mg/kg oral once a day, compared to DSS+vehicle): significant inhibitory effect
- AC50 (human GPR120): 3.9 µM
